Experimental data taken from ChEMBL document CHEMBL1201862, “PubChem BioAssay data set” (2004).
Active and inactive are the calls of the source.

What was measured:
[1] = target: Sphingosine 1-phosphate receptor 2 (Homo sapiens, UniProt O95136); experiment: Dose Response Cell Based Assay for Agonists of the S1P2 Receptor. [Related pubchem assays: 729, 736, 843 ]; format: functional
[2] = HPDE-C7 pancreatic duct cell viability loss – fluorescence, HTS (AID 430); format: functional, cell-based; conditions: Homo sapiens
[3] = target: Ubiquitin carboxyl-terminal hydrolase BAP1 (Homo sapiens, UniProt Q92560); experiment: inhibition of BAP1 ubiquitin hydrolase activity – biochemical, dose response (AID 714); format: functional
Chain of Ubiquitin carboxyl-terminal hydrolase BAP1 (Q92560 whole entry): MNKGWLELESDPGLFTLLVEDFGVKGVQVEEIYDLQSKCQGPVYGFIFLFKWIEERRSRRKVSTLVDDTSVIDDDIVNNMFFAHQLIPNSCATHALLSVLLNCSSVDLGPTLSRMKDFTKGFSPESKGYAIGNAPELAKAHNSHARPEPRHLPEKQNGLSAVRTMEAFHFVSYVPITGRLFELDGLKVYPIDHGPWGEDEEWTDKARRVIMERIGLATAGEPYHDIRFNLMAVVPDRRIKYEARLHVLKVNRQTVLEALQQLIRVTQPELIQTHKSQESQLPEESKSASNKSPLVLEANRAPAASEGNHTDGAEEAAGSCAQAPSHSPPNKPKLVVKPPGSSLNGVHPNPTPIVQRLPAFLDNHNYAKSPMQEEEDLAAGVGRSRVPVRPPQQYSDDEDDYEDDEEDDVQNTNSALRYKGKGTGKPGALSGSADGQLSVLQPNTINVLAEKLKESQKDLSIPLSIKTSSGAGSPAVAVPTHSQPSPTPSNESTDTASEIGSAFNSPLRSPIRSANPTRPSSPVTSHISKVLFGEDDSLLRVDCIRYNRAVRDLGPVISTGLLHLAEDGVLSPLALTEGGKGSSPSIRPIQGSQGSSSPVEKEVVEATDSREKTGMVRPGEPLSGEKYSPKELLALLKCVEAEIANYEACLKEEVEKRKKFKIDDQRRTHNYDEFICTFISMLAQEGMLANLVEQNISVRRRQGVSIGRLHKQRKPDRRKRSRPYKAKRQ

[4] = viability loss of HPDE-C7K cells – cell-based, fluorescence, HTS, primary screen (AID 431); format: functional; conditions: Homo sapiens
[5] = target: Heat shock protein HSP 90-alpha (Homo sapiens, UniProt P07900); experiment: Luminescence-based dose response biochemical high throughput screening assay for inhibitors of the Heat Shock Protein 90 (HSP90). [Related pubchem assays: 1831 (Summary AID.), 1846 (Confirmation screen.), 1789 (Primary screen.)]
[6] = target: T1, Tyrosine-protein phosphatase non-receptor type 7 (Homo sapiens, UniProt P35236); experiment: HePTP tyrosine phosphatase activity blockers – biochemical, absorbance, leukemia target, primary screen (AID 521); format: functional
T1 sequence (P35236 whole entry): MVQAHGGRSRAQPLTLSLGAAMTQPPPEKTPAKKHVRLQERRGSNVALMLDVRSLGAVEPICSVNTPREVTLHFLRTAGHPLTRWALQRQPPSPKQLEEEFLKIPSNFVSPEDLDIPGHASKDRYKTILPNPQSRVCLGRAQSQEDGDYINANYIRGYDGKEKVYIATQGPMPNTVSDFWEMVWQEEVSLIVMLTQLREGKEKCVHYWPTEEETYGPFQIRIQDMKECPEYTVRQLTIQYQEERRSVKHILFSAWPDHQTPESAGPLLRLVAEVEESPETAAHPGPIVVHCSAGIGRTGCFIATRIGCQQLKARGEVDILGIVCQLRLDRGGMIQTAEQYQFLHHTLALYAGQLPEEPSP

[7] = target: T2, Voltage-gated N-type calcium channel alpha-1B subunit/Amyloid beta A4 precursor protein-binding family A member 1 (Homo sapiens, UniProt Q00975+Q02410); format: protein assay
T2 sequence (Q00975 whole entry): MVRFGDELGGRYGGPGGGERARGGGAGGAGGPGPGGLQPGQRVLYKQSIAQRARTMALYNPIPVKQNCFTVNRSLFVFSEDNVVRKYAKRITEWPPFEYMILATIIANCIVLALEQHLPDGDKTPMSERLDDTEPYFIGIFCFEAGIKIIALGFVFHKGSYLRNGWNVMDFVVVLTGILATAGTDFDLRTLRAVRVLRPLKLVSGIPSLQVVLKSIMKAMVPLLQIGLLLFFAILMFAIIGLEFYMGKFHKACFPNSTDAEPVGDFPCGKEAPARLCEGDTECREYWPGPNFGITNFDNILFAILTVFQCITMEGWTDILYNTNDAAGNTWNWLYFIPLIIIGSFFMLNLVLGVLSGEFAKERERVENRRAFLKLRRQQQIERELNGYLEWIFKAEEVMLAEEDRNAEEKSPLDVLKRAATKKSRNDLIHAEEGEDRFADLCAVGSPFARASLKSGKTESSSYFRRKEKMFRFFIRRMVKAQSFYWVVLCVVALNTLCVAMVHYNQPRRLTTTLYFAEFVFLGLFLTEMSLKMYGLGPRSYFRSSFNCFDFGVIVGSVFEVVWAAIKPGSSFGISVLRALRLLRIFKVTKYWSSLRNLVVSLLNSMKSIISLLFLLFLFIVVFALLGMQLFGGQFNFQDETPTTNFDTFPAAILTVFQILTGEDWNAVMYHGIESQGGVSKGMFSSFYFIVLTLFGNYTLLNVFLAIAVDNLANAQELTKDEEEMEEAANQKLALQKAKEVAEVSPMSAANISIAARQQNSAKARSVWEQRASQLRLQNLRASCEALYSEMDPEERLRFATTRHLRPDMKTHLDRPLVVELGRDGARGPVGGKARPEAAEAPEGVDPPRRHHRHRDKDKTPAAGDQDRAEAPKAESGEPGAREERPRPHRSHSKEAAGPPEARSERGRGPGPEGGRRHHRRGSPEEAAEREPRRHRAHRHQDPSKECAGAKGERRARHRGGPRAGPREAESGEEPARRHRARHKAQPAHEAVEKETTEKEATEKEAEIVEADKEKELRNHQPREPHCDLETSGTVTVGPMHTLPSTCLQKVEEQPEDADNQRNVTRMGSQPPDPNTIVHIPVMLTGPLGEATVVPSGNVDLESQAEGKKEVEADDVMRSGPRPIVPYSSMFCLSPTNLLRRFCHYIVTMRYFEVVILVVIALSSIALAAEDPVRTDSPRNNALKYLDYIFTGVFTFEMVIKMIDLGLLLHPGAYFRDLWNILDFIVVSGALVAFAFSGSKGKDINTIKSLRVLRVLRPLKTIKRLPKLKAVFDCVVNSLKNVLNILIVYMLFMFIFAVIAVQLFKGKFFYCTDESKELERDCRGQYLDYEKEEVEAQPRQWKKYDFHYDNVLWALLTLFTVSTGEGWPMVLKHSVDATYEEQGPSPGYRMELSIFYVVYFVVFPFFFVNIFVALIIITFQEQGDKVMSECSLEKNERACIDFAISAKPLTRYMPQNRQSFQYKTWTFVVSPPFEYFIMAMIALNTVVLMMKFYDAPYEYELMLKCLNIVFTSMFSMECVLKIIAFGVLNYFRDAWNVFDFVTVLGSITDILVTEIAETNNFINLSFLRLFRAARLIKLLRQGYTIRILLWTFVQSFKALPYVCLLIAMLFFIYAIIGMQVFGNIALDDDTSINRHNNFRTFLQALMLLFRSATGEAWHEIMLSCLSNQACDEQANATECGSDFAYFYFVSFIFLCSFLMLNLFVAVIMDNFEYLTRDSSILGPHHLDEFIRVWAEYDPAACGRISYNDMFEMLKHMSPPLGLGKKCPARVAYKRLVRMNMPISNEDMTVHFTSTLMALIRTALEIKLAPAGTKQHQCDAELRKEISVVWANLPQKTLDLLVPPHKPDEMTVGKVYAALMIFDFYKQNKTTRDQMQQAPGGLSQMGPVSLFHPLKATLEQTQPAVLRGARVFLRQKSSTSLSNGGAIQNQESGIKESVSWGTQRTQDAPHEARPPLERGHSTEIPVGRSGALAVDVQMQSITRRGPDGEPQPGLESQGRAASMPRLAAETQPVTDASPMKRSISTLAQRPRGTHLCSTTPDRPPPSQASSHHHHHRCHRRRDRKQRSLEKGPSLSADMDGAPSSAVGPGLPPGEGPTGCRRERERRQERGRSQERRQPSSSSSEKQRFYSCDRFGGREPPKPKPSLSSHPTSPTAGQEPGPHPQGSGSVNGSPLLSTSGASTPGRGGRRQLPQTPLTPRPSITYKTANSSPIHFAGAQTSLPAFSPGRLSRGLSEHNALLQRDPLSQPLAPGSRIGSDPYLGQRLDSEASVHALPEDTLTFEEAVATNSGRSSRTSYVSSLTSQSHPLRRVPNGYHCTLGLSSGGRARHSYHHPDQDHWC
T2 sequence (Q02410 whole entry): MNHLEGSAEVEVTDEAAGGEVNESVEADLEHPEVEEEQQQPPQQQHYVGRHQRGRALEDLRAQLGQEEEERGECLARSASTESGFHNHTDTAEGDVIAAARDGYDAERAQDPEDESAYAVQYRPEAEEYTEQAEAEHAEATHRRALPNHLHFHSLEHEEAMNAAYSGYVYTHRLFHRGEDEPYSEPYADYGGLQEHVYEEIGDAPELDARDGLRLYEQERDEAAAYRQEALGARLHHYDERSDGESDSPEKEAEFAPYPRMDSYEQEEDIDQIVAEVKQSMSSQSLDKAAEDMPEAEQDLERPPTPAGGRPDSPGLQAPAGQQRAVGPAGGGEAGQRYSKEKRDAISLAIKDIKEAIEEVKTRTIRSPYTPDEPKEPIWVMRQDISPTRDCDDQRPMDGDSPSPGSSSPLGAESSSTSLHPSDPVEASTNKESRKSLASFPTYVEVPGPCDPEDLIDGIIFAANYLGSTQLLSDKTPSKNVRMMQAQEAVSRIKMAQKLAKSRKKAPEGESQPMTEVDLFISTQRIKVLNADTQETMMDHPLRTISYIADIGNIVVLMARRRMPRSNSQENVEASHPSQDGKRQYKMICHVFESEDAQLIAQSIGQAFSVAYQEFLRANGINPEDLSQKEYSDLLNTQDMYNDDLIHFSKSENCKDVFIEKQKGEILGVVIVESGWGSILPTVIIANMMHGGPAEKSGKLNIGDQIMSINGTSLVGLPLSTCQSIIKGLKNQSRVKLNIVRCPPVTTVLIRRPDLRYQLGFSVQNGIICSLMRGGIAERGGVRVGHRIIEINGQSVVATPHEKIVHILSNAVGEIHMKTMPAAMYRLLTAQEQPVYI

[8] = target: T2, Voltage-gated N-type calcium channel alpha-1B subunit/Amyloid beta A4 precursor protein-binding family A member 1; format: protein assay; remark: listed apart in the source
[9] = target: Bifunctional protein GlmU (Mycobacterium tuberculosis, UniProt P9WMN3); experiment: Inhibitors of Mycobacterial Glucosamine-1-phosphate acetyl transferase (GlmU). Secondary screen.; set-up: species or system Mycobacterium tuberculosis H37Rv
[10] = off-target signal loss in HeLa-CEM21 co-culture – HeLa F-luc CTL cells, cherry-picked, counter-screen for HIV-1 Env fusion inhibitor project, dose response (AID 652040); format: functional, cell-based;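 note: potency for signal decrease marking cytotoxic or nonspecific inhibition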
[11] = HIV-1 AD8 envelope cell-cell fusion blockers – cherry-pick, dose response (AID 652062); format: functional, cell-based;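 note: luciferase signal from cell-cell fusion driven by HIV-1 clade B AD8 Env; potency is for inhibitors of fusion seen as a drop in luminescence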
[12] = blockers of HIV-1 envelope-mediated cell-cell fusion – cherry-pick, dose response (AID 652057); format: functional, cell-based
[13] = viability loss in CEM21 cells – cell-based, CellTiter-Glo luminescence, cherry-picked, cytotoxicity control for viral fusion inhibitor project, dose response (AID 652042); format: functional;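 note: potency for signal decrease meaning cytotoxicity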
[14] = target: T3, Bcl-2-related protein A1 (Mus musculus, UniProt Q07440); experiment: small-molecule antagonists of Bfl-1/BH3 interaction – biochemical, TR-FRET, mouse Bfl-1, confirmation (AID 621);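 note: TR-FRET binding of GST-Bfl-1 to FITC-labelled Bid peptide via terbium antibody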
T3 sequence (Q07440 whole entry): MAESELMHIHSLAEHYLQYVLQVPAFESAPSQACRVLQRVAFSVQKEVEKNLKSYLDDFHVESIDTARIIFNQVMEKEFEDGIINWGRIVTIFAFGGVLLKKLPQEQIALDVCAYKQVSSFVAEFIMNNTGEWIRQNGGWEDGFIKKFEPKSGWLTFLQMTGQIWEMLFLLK

[15] = blockers of HIV-1 ZM109 envelope-driven cell-cell fusion – HeLa effector, CEM target cells, luciferase, cherry-pick, dose response (AID 652058); format: functional, cell-based;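 note: luciferase signal from HIV-1 Env mediated cell-cell fusion of effector and target cells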
[16] = target: Dual specificity protein phosphatase 6 (Rattus norvegicus, UniProt Q64346); experiment: inhibition of rat DUSP6 enzyme activity – biochemical, in vitro, primary screen (AID 425)
Chain of Dual specificity protein phosphatase 6 (Q64346 whole entry): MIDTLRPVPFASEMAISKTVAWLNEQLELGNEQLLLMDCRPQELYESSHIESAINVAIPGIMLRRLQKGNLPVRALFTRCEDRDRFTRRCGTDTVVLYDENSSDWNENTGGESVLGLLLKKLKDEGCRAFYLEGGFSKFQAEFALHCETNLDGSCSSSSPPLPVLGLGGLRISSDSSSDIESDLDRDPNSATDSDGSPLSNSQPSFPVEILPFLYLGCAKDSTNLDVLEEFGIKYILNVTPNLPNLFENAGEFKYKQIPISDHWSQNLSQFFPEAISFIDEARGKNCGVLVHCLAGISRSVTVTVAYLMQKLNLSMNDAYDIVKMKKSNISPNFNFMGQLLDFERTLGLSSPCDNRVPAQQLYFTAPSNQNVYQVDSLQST

[17] = target: T3, Bcl-2-related protein A1; experiment: displacement of Bid BH3 peptide from Bfl-1 – biochemical, fluorescence polarization, FITC-Bid, mouse, primary screen (AID 432)

Chain of Sphingosine 1-phosphate receptor 2 (O95136 whole entry): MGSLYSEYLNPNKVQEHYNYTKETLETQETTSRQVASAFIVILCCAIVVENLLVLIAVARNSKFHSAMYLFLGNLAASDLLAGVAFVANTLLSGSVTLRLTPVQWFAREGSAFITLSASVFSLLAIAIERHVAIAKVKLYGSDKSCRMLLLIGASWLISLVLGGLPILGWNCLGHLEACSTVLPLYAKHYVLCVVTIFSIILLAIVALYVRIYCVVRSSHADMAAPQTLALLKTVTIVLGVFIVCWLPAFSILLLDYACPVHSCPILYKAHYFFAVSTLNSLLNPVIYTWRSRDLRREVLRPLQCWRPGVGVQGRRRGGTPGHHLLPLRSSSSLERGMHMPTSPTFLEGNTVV

In the case of O=C(CCC(=O)N1CCc2ccccc21)Nc1ccccc1, the EC50 [1] is reported as > 50 µM (not active).
With Cc1sc(NC(=O)CSc2nnc3scc(-c4ccccc4)n23)c(C#N)c1C the EC50 [2] was 8.93 µM (active), the IC50 [3] was > 50 µM (not active) and the EC50 [4] was 8.96 µM (active).
For CC(=O)Oc1ccc(Nc2ccccc2)cc1, the IC50 [5] was 6.62 µM (active).
For CC(C)(C#N)Nc1ccccc1, the IC50 [6] was > 100 µM (not active).
In the case of N=C1/C(=C\c2ccc(-c3ccc(C(=O)O)cc3)o2)C(=O)N=C2SC=C(c3ccccc3)N12, the IC50 [7] is reported as 29.2 µM (active), the IC50 [8] is reported as 4.12 µM (active) and the IC50 [9] is reported as 182 µM (active).
With Cc1ccc(-c2nn3c(C)nnc3s2)cc1NC(=O)c1ccc(-c2ccc(Cl)cc2Cl)o1 the AC50 [10] was 9.7 µM (active), the AC50 [11] was 5.1 µM (active) and the AC50 [12] was 6.5 µM (active). The AC50 [13] was 6.8 µM (active), the IC50 [14] was > 100 µM (not active) and the AC50 [15] was 4.6 µM (active). For the same compound, the IC50 [16] was > 10 µM (not active) and the IC50 [17] was > 100 µM (not active).
